Reference: publication PMC7597377 (Science signaling, 2020)
Where a chain is given by its changes, count along the chain named.

Tests used:
Assay in all cases: competitive radiometric binding vs [3H]E2
[1] = target: T1, ERα LBD (WT-Q, his-tagged) (Homo sapiens, UniProt P03372)
T1 sequence (P03372 302-552 limits assumed): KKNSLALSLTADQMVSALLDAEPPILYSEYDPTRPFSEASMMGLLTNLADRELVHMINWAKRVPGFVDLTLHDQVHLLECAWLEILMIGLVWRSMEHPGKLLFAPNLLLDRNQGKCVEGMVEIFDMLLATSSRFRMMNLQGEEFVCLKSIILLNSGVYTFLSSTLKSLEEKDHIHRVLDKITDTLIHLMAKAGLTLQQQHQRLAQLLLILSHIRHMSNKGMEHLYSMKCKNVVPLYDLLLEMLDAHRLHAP

[2] = target: T2, ERα LBD (WT-Q, his-tagged) (Homo sapiens, UniProt P03372, Q375L)
T2 sequence (P03372 302-552 Q375L limits assumed): T1 sequence (P03372 302-552 limits assumed) with Q74L

[3] = target: T3, ERα LBD (WT-Q, his-tagged) (Homo sapiens, UniProt P03372, Q375H)
T3 sequence (P03372 302-552 Q375H limits assumed): T1 sequence (P03372 302-552 limits assumed) with Q74H

[4] = target: T4, ERα LBD (WT-Q, his-tagged) (Homo sapiens, UniProt P03372, Q375E)
T4 sequence (P03372 302-552 Q375E limits assumed): T1 sequence (P03372 302-552 limits assumed) with Q74E

[5] = target: T5, ERα LBD (WT-Q, his-tagged) (Homo sapiens, UniProt P03372, Q375K)
T5 sequence (P03372 302-552 Q375K limits assumed): T1 sequence (P03372 302-552 limits assumed) with Q74K

Row | Compound | Ki [1] [nM] | Ki [2] [nM] | Ki [3] [nM] | Ki [4] [nM] | Ki [5] [nM]
1 | C[C@]12C[C@H](CCl)[C@@H]3c4ccc(O)cc4CC[C@H]3[C@@H]1CC[C@@H]2O [CME] | 0.11 ± 0.04 | 0.22 ± 0.05 | 0.58 ± 0.14 | 0.35 ± 0.08 | 0.41 ± 0.1
2 | CC[C@H]1C[C@]2(C)[C@@H](O)CC[C@H]2[C@@H]2CCc3cc(O)ccc3[C@@H]12 [Et-E2] | 0.13 ± 0.04 | 0.16 ± 0.04 | 0.74 ± 0.04 | – | 0.29 ± 0.02
3 | CC[C@H](c1ccc(O)cc1)[C@@H](CC)c1ccc(O)cc1 [Hex] | 0.06 ± 0.02 | 0.07 ± 0.01 | 0.29 ± 0.07 | – | 0.29 ± 0.05
